{"source": "paper PMC9571302", "about": "“Evaluation of Major Constituents of Medicinally Important Plants for Anti-Inflammatory, Antidiabetic and AGEs Inhibiting Properties: In Vitro and Simulatory Evidence” (Molecules, 2022)", "key": {"15-LOX (lipoxygenase)": {"target": "T1, 15-LOX (lipoxygenase) (Glycine max, UniProt P08170)", "T1 construct": "purchased Merck (Dorset, UK) and Oxoid (Hampshire, UK)", "T1 sequence (P08170 1-839)": "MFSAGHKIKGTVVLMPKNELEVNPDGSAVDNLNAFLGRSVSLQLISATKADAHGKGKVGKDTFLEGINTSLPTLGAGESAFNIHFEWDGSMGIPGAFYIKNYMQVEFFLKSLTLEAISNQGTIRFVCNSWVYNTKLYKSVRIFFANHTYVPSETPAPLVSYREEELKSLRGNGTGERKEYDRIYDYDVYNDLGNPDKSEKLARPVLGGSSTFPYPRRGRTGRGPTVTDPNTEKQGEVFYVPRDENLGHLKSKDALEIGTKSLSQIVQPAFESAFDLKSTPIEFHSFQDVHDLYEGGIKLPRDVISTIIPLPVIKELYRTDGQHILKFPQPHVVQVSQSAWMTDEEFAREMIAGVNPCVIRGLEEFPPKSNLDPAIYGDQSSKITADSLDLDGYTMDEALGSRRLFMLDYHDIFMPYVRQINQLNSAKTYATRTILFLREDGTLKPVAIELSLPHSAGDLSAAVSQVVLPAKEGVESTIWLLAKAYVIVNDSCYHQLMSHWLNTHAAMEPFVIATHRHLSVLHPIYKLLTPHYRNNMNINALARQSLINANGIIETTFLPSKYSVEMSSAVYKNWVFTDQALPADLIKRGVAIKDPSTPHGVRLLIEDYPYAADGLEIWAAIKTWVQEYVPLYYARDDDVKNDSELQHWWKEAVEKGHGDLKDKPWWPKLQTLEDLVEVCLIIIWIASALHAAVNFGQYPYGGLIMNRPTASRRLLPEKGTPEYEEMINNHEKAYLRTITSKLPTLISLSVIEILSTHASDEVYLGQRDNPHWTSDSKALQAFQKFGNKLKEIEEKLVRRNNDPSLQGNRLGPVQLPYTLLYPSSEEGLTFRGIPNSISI", "experiment": "15-Lipoxygenase assay", "assay_type": "biochemical", "procedure": "The anti-inflammatory activity of test samples was evaluated using a standard protocol [65]. To the enzyme solution (200 units/mL; 487.5 µL), different concentrations of test sample (12.5 µL (2–0.062 mM) in DMSO were added and incubated for 5 min at 37 °C. The absorbance was recorded immediately after the addition of substrate (500 µL of substrate (250 mM linoleic acid in 0.2 M borate buffer, pH 9) and after every min up to 5 min at 234 nm by using a UV spectrophotometer (UV-1601, SHEMADZU, Kyoto, Japan).\nThe percentage inhibition of enzyme activity was calculated as follows:% inhibition = ([ΔA1/Δt] − [ΔA2/Δt]/(ΔA1/Δt) × 100 where ΔA1/Δt and ΔA2/Δt are the increase rate in absorbance at 234 nm for a sample without test substance and with test substance, respectively."}, "[1]": {"target": "T2, BSA cross-link formation (BSA-MGO) (Bos taurus, UniProt P02769)", "T2 construct": "purchased Merck (Dorset, UK) and Oxoid (Hampshire, UK)", "T2 sequence (P02769 25-607)": "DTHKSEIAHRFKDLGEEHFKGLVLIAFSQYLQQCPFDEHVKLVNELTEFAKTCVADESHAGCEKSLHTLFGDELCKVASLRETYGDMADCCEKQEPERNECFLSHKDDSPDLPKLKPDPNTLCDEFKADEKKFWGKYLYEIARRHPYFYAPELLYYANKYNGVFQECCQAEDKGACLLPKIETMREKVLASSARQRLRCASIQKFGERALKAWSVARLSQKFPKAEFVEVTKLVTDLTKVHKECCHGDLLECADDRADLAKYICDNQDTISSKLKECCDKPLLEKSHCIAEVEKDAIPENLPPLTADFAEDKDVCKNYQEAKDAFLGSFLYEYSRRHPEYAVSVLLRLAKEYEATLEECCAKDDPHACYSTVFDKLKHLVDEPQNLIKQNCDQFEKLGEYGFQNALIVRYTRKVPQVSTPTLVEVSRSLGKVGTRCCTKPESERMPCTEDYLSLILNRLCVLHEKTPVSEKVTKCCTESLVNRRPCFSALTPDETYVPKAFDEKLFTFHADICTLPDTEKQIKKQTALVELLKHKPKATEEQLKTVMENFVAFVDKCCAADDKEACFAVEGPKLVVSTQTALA", "experiment": "Protein cross-linking assay by SDS-PAGE, BSA-MGO", "assay_type": "biochemical, bovine", "settings": "SDS-PAGE integrated density", "method": "(§1) 4.5.4. Protein Cross-Linking Assay\n(§2) Protein cross-linked by AGEs were observed by SDS-PAGE (sodium dodecyl sulphate-polyacrylamide gel electrophoresis). In this experiment, gels (10%) were made and stained with dye (0.25% Coomassie blue). The protein samples (6 µL) were diluted with Tris–HCl buffer (3.75 mL, 0.05 M; pH 6.8) also comprising sodium dodecyl sulphate (150 µL, 10% w/v), 2-mercaptoethanol 1% (v/v) and glycerin 20% v/v), followed by boiling for 5 min. The ladder (12 μL) was loaded into the well on gel preceded by the loading of bromophenol blue (2 μL). After loading, the electrophoresis was accomplished by using the Mini-Protean® Tetra Cell apparatus (Bio-Rad, UK). Afterwards, the gels were stained in a solution containing Coomassie blue [0.25% (w/v)], methanol [50% (v/v)] and acetic acid [10% (v/v)].\n(§3) 4.5.5. SDS-PAGE Gels Image Analysis\n(§4) The developed gel was stained with Coomassie blue and images were obtained using GelDoc. Finally, the Image J tool was used for the determination of integrated density (IntDen). The integrated density was employed further for the determination of percentage inhibition. The integrated density (ID) was determined as follows:Integrated density (ID) = N × (mean − background) where N is the number of pixels in the selection and the background is the modal grey value (most common pixel value) after smoothing the histogram."}, "[2]": {"target": "T3, bovine serum albumin (BSA) glycation by methylglyoxal (Bos taurus, UniProt P02769)", "T3 construct": "purchased Merck (Dorset, UK) and Oxoid (Hampshire, UK)", "T3 sequence (P02769 25-607)": "as above", "experiment": "AGEs assay, oxidative (BSA-MGO assay)", "assay_type": "biochemical", "method": "The test samples were added to this reaction mixture and stored at 37 °C for a week. […] The control samples used for the experiment were prepared using the same protocol without a test sample.\nThe AGEs inhibition was determined as % inhibition = {1 − [(Fluo (BSA + MGO + test substance) − Fluo (BSA + test substance)]/[(Fluo (BSA + MGO) − Fluo (BSA)]} × 100 where Fluo is the fluorescence intensity. The IC50 was calculated using MS Excel."}, "α-glucosidase": {"target": "α-glucosidase", "experiment": "α-Glucosidase inhibition assay", "assay_type": "biochemical, Saccharomyces cerevisiae", "method": "4.5.1. α-Glucosidase Inhibition Assay\nThe α-glucosidase inhibition experiment was accomplished by using a modified method. Initially, the enzyme solution (from Saccharomyces cerevisiae) (0.2 units/mL dissolved in 0.1 M phosphate buffer; pH 6.8) was mixed with the test sample (1 to 0.039 mg/mL) and incubated in an oven (37 °C for 10 min). After incubation, the substrate (p-nitrophenyl-α-D-glucopyranoside; 0.29 mM) was added to the enzyme and test sample solution and incubated for another 30 min (37 °C).\nThe percentage of inhibition was determined using the following formula: % Inhibition = [1 − absorbance of test sample/absorbance of control] × 100"}, "[3]": {"target": "T4, bovine serum albumin (BSA) glycation by glucose (Bos taurus, UniProt P02769)", "T4 construct": "purchased Merck (Dorset, UK) and Oxoid (Hampshire, UK)", "T4 sequence (P02769 25-607)": "as above", "experiment": "AGEs assay, non-oxidative (BSA-glucose assay)", "assay_type": "biochemical", "method": "4.5.2. AGEs Assay (BSA-Glucose Assay)\nThe AGEs assay was accomplished by using a standard protocol. The protein source (bovine serum albumin, BSA) (10 mg/mL; 135 µL) was mixed with D-glucose solution (500 mM, 135 µL in phosphate buffer; 50 mM, pH 7.4), NaN3 (sodium azide; 0.02%) and test samples (various concentrations). The reaction mixtures were kept at 60 °C for 1 week to facilitate glycation. Finally, trichloroacetic acid (10 µL, 100%) was added to it to stop the reaction and precipitate the unbound material. […] Aminoguanidine was used as positive control. The control samples used for the experiment were prepared using the same protocol without the test sample.\nThe AGEs inhibition was calculated as % inhibition = {1 − [Fluo(BSA + glucose + test substance) − Fluo (BSA + test substance)]/[Fluo (BSA + glucose) − Fluo(BSA)]} × 100 where Fluo is the fluorescence intensity. The IC50 was calculated using MS Excel."}, "[4]": {"target": "T5, BSA cross-link formation (BSA-glucose) (Bos taurus, UniProt P02769)", "T5 construct": "purchased Merck (Dorset, UK) and Oxoid (Hampshire, UK)", "T5 sequence (P02769 25-607)": "as above", "experiment": "Protein cross-linking assay by SDS-PAGE, BSA-glucose", "assay_type": "biochemical, bovine", "settings": "SDS-PAGE integrated density", "method": "as §1, §2, §3, §4"}, "[5]": {"settings": "read-out: 15-LOX Assay (% Inhibition)"}, "[6]": {"settings": "oxidative mode, Table 6, read-out: Protein Glycation BSA-MGO (IC50) (converted)"}, "[7]": {"settings": "non-oxidative mode, Table 6, read-out: Protein Glycation BSA-Glucose (IC50) (converted)"}}, "note": "Like-named read-outs stand apart in the source and are kept apart here.", "data": [{"smiles": "S=C=NCCc1ccccc1", "note": "[2-Phenylethylisothiocyanate, 2-phenylethylisothiocyanate]", "values": [{"measurement": "15-LOX Assay (% Inhibition)", "setting": "15-LOX (lipoxygenase); 25 µg/mL", "result": "Inactive ^5"}, {"measurement": "Inhibition of protein cross-link formation", "setting": "[1]", "result": 48, "unit": "%"}, {"measurement": "Protein Glycation BSA-MGO (IC50)", "setting": "[2]", "result": "Inactive"}, {"measurement": "α-Glucosidase (IC50)", "setting": "α-glucosidase", "result": "28.9 ± 0.1", "unit": "µg/mL"}, {"measurement": "Protein Glycation BSA-Glucose (IC50)", "setting": "[3]", "result": "Inactive"}]}, {"smiles": "O=c1cc(-c2ccc(O)cc2)oc2cc(O)cc(O)c12", "note": "[Apigenin, apigenin]", "values": [{"measurement": "inhibition at 14.1 µg/mL", "setting": "15-LOX (lipoxygenase); 14.1 µg/mL", "result": "53 ± 0.1", "unit": "%"}, {"measurement": "Inhibition of protein cross-link formation", "setting": "[4]", "result": 51, "unit": "%"}, {"measurement": "Protein Glycation BSA-MGO (IC50)", "setting": "[2]", "result": "Inactive"}, {"measurement": "α-Glucosidase (IC50)", "setting": "α-glucosidase", "result": "24.4 ± 0.1", "unit": "µg/mL"}, {"measurement": "IC50", "setting": "[3]", "result": 1670, "unit": "µM"}]}, {"smiles": "C=C1CC[C@H]2O[C@]2(C)CC[C@@H]2[C@@H]1CC2(C)C", "note": "[Caryophyllene oxide, caryophyllene-oxide]", "values": [{"measurement": "15-LOX Assay (% Inhibition)", "setting": "15-LOX (lipoxygenase); 12.5 µg/mL", "result": "50.0± 0.1", "unit": "% ^2"}, {"measurement": "Inhibition of protein cross-link formation", "setting": "[1]", "result": 35, "unit": "%"}, {"measurement": "Protein Glycation BSA-MGO (IC50)", "setting": "[2]; oxidative mode, Table 6", "result": "Inactive"}, {"measurement": "α-Glucosidase (IC50)", "setting": "α-glucosidase", "result": "Inactive"}, {"measurement": "Protein Glycation BSA-Glucose (IC50)", "setting": "[3]; non-oxidative mode, Table 6", "result": "Inactive"}]}, {"smiles": "C=C1CC/C=C(\\C)CC[C@@H]2[C@@H]1CC2(C)C", "note": "[Caryophyllene, trans-caryophyllene]", "values": [{"measurement": "15-LOX Assay (% Inhibition)", "setting": "15-LOX (lipoxygenase); 25 µg/mL", "result": "Inactive ^6"}, {"measurement": "Protein Glycation BSA-MGO (IC50)", "setting": "[2]", "result": "Inactive"}, {"measurement": "α-Glucosidase (IC50)", "setting": "α-glucosidase", "result": "Inactive"}, {"measurement": "Protein Glycation BSA-Glucose (IC50)", "setting": "[3]", "result": "Inactive"}]}, {"smiles": "C=CCc1ccc(O)c(OC)c1", "note": "[Eugenol, eugenol]", "values": [{"measurement": "inhibition at 83 µg/mL", "setting": "15-LOX (lipoxygenase); [5]", "result": "51 ± 0.2", "unit": "%"}, {"measurement": "Protein Glycation BSA-MGO (IC50)", "setting": "[2]", "result": "Inactive"}, {"measurement": "α-Glucosidase (IC50)", "setting": "α-glucosidase", "result": "Inactive"}, {"measurement": "IC50", "setting": "[3]", "result": 244, "unit": "µM"}]}, {"smiles": "O=C1C=CC(=O)c2c(O)cccc21", "note": "[Juglone, juglone]", "values": [{"measurement": "inhibition at 2.5 µg/mL", "setting": "15-LOX (lipoxygenase); 2.5 µg/mL", "result": "57 ± 0.1", "unit": "%"}, {"measurement": "Inhibition of protein cross-link formation", "setting": "[1]", "result": 39, "unit": "%"}, {"measurement": "IC50", "setting": "[2]; [6]", "result": 632, "unit": "µM"}, {"measurement": "α-Glucosidase (IC50)", "setting": "α-glucosidase", "result": "5.7 ± 0.1", "unit": "µg/mL"}, {"measurement": "IC50", "setting": "[3]; [7]", "result": 345, "unit": "µM"}]}, {"smiles": "O=c1c(O)c(-c2ccc(O)c(O)c2)oc2cc(O)cc(O)c12", "note": "[Quercetin, quercetin]", "values": [{"measurement": "inhibition at 25 µg/mL", "setting": "15-LOX (lipoxygenase); 25 µg/mL", "result": "62 ± 0.1", "unit": "%"}, {"measurement": "Inhibition of protein cross-link formation", "setting": "[4]", "result": 53, "unit": "%"}]}, {"smiles": "C[C@@H]1O[C@@H](Oc2c(-c3ccc(O)c(O)c3)oc3cc(O)cc(O)c3c2=O)[C@H](O)[C@H](O)[C@H]1O", "note": "[Quercitrin, quercitrin]", "values": [{"measurement": "inhibition at 16.2 µg/mL", "setting": "15-LOX (lipoxygenase); [5]", "result": "65 ± 0.1", "unit": "%"}, {"measurement": "Inhibition of protein cross-link formation", "setting": "[4]", "result": 55, "unit": "%"}, {"measurement": "IC50", "setting": "[2]", "result": 758, "unit": "µM"}, {"measurement": "α-Glucosidase (IC50)", "setting": "α-glucosidase", "result": "7.6 ± 0.1", "unit": "µg/mL"}, {"measurement": "IC50", "setting": "[3]", "result": 201, "unit": "µM"}]}, {"smiles": "C[C@@H]1O[C@@H](OC[C@H]2O[C@@H](Oc3c(-c4ccc(O)c(O)c4)oc4cc(O)cc(O)c4c3=O)[C@H](O)[C@@H](O)[C@@H]2O)[C@H](O)[C@H](O)[C@H]1O", "note": "[Rutin, reference compound]", "values": [{"measurement": "inhibition at 12.5 µg/mL", "setting": "15-LOX (lipoxygenase); 12.5 µg/mL", "result": "62 ± 0.1", "unit": "%"}, {"measurement": "IC50", "setting": "[2]; [6]", "result": 1670, "unit": "µM"}, {"measurement": "IC50", "setting": "[3]; [7]", "result": 49.1, "unit": "µM"}]}, {"smiles": "O=C(O)c1cc(O)c(O)c(O)c1", "note": "[gallic acid]", "values": [{"measurement": "α-Glucosidase (IC50)", "setting": "α-glucosidase", "result": 8.2, "unit": "µg/mL"}]}, {"smiles": "C/C1=C\\CC/C(C)=C/CC(C)(C)/C=C/C1", "note": "[α-Humulene, α-humulene]", "values": [{"measurement": "15-LOX Assay (% Inhibition)", "setting": "15-LOX (lipoxygenase); 13.0 µg/mL", "result": "60.0 ± 0.1", "unit": "% ^3"}, {"measurement": "Inhibition of protein cross-link formation", "setting": "[1]", "result": 40, "unit": "%"}, {"measurement": "Protein Glycation BSA-MGO (IC50)", "setting": "[2]; oxidative mode, Table 6", "result": "Inactive"}, {"measurement": "α-Glucosidase (IC50)", "setting": "α-glucosidase", "result": "Inactive"}, {"measurement": "Protein Glycation BSA-Glucose (IC50)", "setting": "[3]; non-oxidative mode, Table 6", "result": "Inactive"}]}]}
